# Measurements published in patent publication US20030166528A1, “Antifungal compound” (priority 2000, published 2003).
# Read-outs that look alike come from different tables or passages of the source. Non-standard residues stand in square brackets, D forms with d. Residues, ends and D or L forms follow the SMILES beside them. 1Nal = N[C@@H](Cc1cccc2ccccc12)C(=O)O; 2Thi = N[C@@H](Cc1cccs1)C(=O)O; Nva = CCC[C@H](N)C(=O)O
# Legend:
# C. albicans [1] = format: cell-based; conditions: on C. albicans, with fluconazole and amphotericin-B
# Protocol: (§1) In addition, checkerboard assays were used to evaluate synergy, additivity or antagonism between XMP.676 and fluconazole, amphotericin B or itraconazole. These assays were carried out on both C. albicans and A. fumigatus. Results from these experiments were used to calculate fractional inhibitory concentration (FIC) values. […] At lower concentrations of both compounds, additional synergy may be observed.
# A. fumigatus = format: cell-based; conditions: on A. fumigatus, with tested concentrations of amphotericin-B and itraconazole
# Protocol: as §1
# [2] = format: in vivo, rabbits
# Protocol: Increasing doses of various […], or via intraperitoneal injection, to determine the maximum dose of peptide that could be administered without causing observable symptoms such as respiratory distress and loss of righting reflex. […] […] When administered via rapid intravenous injection, doses of XMP.676 higher than 2.5 mg/kg were not well tolerated, but slow injection increased the well tolerated dose two-fold to 5.0 mg/kg. When administered intraperitoneally, XMP.676 was well tolerated at doses up to and including 15.0 mg/kg. […] XMP.676 was also tested in cytarabine-treated conscious rabbits (wherein 30 mg/kg cytarabine was administered intravenously daily for 5 days prior to administration of XMP.676).
# C. albicans SLU-1 [3] = format: cell-based; conditions: radial diffusion assay
# Protocol: XMP.676 was tested for in vitro antifungal activity in radial diffusion assays against C. albicans SLU-1 generally according to Examples 2 and 3 of U.S. Pat. No. 5,858,974.
# C. albicans [4] = format: in vivo, mice; conditions: 5 mg/kg twice daily for 14 days, intraperitoneal; preliminary test
# [5] = format: in vitro ADME; conditions: for half-life: 37° C., 250 μg/mL, read-out: biological half life
# Protocol: XMP.676 was also tested for stability using a bioassay generally according to Example 5 of U.S. Pat. No. 5,858,974, wherein the peptide is incubated with SDB, RPMI, mouse serum or human serum for varying amounts of time and the resulting serum-treated product is tested for retention of antifungal activity against C. albicans SLU-1 in a FACScan assay as follows.
# A solution of XMP.676 (0.5 mg/mL) was mixed with medium or fresh mouse serum or fresh human serum at a 1:1 ratio to make a 250 μg/mL solution. The resulting mixture was incubated at 37° C. Small sample volumes were removed from the incubation mixture at specific times and placed at −20° C.
# Antifungal activity of the peptide/serum (or peptide/media) samples was tested as follows. Mid-log phase C. albicans were suspended in SDB at a concentration of about 1×10^6 CFU/ml. The suspension was aliquoted in 1 mL portions into polystyrene tubes. The peptide/serum mixture sample were thawed and 50 μL of each sample was aliquoted into each tube and incubated at 37° C. for various times. The cells were then pelleted and resuspended in a solution of 10 μg/mL propidium iodide/PBS and incubated for 5 minutes. Propidium iodide is a fluorescent exclusionary dye that is only taken up by the cell when cell death has occurred. Cells were analyzed for fluorescence on a FACScan instrument using cells treated with 70% ethanol as the control for 100% death, and untreated cells for zero death.
# [6] = in vivo
# in vivo = conditions: DBA/2, mouse, iv, well tolerated dose
# Aspergillus fumigatus = format: in vivo, mice
# Protocol: XMP.676 was additionally tested in cyclosporin-A (CSA) immunosuppressed mice systemically infected with about 5×10^5 CFU Aspergillus fumigatus. Specifically, mice were immunosuppressed by IP injection of 50 mg/kg CSA at day-1. CSA injections continued daily for 9 consecutive days (to day 8). On Day 0, animals received the second CSA injection immediately followed by an inoculum of A. fumigatus in a 0.25 mL volume via a lateral tail injection. Treatment with XMP.676 began one hour following fungal challenge at doses of 0.3, 1.0, 3.0 or 10.0 mg/kg IP, was repeated one day later, and then continued q.o.d. for a total of 7 treatments (Days 0, 1, 3, 5, 7, 9, 11). One group was treated with saline as a control, and another group received 1.0 mg/kg amphotericin B for comparison. Mortality was recorded for 28 days. […] XMP.676 is also be tested in the absence of immunosuppression with CSA.
# C. albicans SLU-1 [7] = format: in vivo, DBA/2 mice
# Protocol: XMP.676 was tested for in vivo antifungal activity in mice with systemic C. albicans infection, as measured by effect on mortality, generally according to Example 4 of U.S. Pat. No. 5,858,974.
# Briefly described, DBA/2 mice were inoculated with an IV injection of approximately 7×10^4 CFU C. albicans SLU-1. Desired doses of XMP.676 were prepared from a stock solution of 1 mg/mL XMP.676 in a 0.9% saline solution. Treatment with XMP.676, other antifungal agents or saline via either IV or IP routes was initiated immediately after fungal challenge. Subsequent treatments were administered q.o.d. through day 15. Mortality was recorded daily for 28 days.
compound,measurement,setting,value
"CCC[C@H](NC(=O)[C@H](CCC(N)=O)NC(=O)[C@@H](NC(=O)[C@H](CCC)NC(=O)[C@H](Cc1cccc2ccccc12)NC(=O)[C@H](N)CCCCN)[C@@H](C)CC)C(=O)N[C@H](C(=O)N[C@@H](Cc1cccs1)C(=O)N[C@H](CCCCN)C(=O)N[C@H](CCCCN)C(N)=O)C(C)C [XMP.676, LysD-(Naph-1-Ala)-Norvaline-Ile-Gln-Norvaline-Val-(Thienyl-Ala)-LysD-LysD] (H-[dK][1Nal][Nva]IQ[Nva]V[2Thi][dK][dK]-NH2)","synergy, additivity or antagonism (FIC)",C. albicans [1],strong additivity or synergy
same,"synergy, additivity or antagonism (FIC)",A. fumigatus,additivity
same,adverse events,"[2]; 2.5 mg/kg IV, 30 minute single infusion",did not result in any significant adverse events
same,adverse events,[2]; doses higher than 2.5 mg/kg IV infusion,resulted in mortality
same,lowest minimum inhibitory concentration (MIC) observed,C. albicans SLU-1 [3],171 pmol
same,reduction in mortality compared to saline control,C. albicans [4],did not provide a reduction in mortality
same,stability in microbial media,"[5]; all types of microbial media examined (SDB, RPMI)",excellent stability
same,half-life,[5]; human serum,> 3 h
same,half-life,[5]; mouse serum,> 3 h
same,well tolerated dose,"[6]; DBA/2, mouse, iv",5.0 mg/kg
same,well tolerated doses,"[6]; mouse, ip",≤ 15.0 mg/kg
same,MTD,in vivo,2.5 mg/kg
same,reduction in mortality,"Aspergillus fumigatus; 1.0 mg/kg IP q.o.d., p=0.0003, 28 days",highly statistically significant reduction in mortality
same,reduction in mortality,Aspergillus fumigatus; 3.0 mg/kg IP,no reduction in mortality
same,reduction in mortality,Aspergillus fumigatus; 10.0 mg/kg IP,no reduction in mortality
same,reduction in mortality,"C. albicans SLU-1 [7]; 0.5 mg/kg IV q.o.d., p<0.001, 28 days",statistically significant reduction in mortality
same,reduction in mortality,"C. albicans SLU-1 [7]; 1.0 mg/kg IV q.o.d., p=0.019, 28 days",reduction in mortality
same,reduction in mortality,"C. albicans SLU-1 [7]; 2.5 mg/kg IV q.o.d., all five experiments (p=0.005, p<0.001, p<0.001, p=0.002, p=0.015)",statistically significant reduction in mortality
same,reduction in mortality,"C. albicans SLU-1 [7]; 5 mg/kg IP q.o.d. or q.d., three of four experiments (p=0.0001, p=0.012, p=0.018)",statistically significant reduction in mortality
same,"protection, slow injection relative to rapid bolus injection","C. albicans SLU-1 [7]; IV, slow (approximately 20 seconds) vs rapid (less than about 5 seconds), 2.5 mg/kg in FIG. 2",greater delay in onset of death and greater protection
same,benefit of intravenous treatment q.o.d. versus q.d. or b.i.d.,C. albicans SLU-1 [7]; intravenous,greater benefit
